# How the values were obtained:
# healthy male volunteers = assay: Human clinical trial: free testosterone levels after CASODEX together with NOLVADEX or CASODEX alone; format: in vivo; settings: for Free testosterone concentration, gmean: n=7
# Experimental: The following clinical trial was performed to determine the effect of the administration of CASODEX™ together with NOLVADEX™ on free testosterone levels in healthy male volunteers over a 6 week period.
# Key Inclusion Criteria: Male, aged 65 years or above showing no clinically significant abnormalities in routine haematological and biochemical tests and having endocrinology and prostate specific antigen (PSA) results within normal limits.
# Key Exclusion Criteria: Previous inclusion in a clinical trial using CASODEX™; concurrent treatment with any drugs with the exception of paracetomol; history or presence of any testicular abnormality; history or presence of gastrointestinal, hepatic or renal disease, or other condition known to interfere with the absorption, distribution, metabolism or excretion of drugs; a clinically significant illness within 2 weeks of trial commencement; definite or suspected personal or family history of significant adverse drug reactions or any hypersensitivity to CASODEX™ or NOLVADEX™; treatment within the previous 3 months with any drugs known to have a well-defined potential for hepatotoxicity or hepatic interaction.
# Dosage: The CASODEX™ was administered daily at a dose of 150 mg and the NOLVADEX™ was administered daily at a dose of 20 mg. All treatments were in tablet form and taken once daily. Daily treatment with CASODEX™ plus NOLVADEX™ was for 6 weeks, this period being selected as the minimum time to attain steady-state plasma concentrations for the drugs. Another set of volunteers were administered CASODEX™ alone at a daily dose of 150 mg for 4 weeks. All treatments were in tablet form and taken once daily.
# Key Assessment: Free testosterone concentrations were measured during the course of the trial.
# Day 1 samples were drawn before dosing, and therefore act as a baseline measurement.
# humans = settings: single agent therapy; cited from earlier work
# men = settings: cited from earlier work
structure (smiles),measurement,setting,value
"CC(O)(CS(=O)(=O)c1ccc(F)cc1)C(=O)Nc1ccc(C#N)c(C(F)(F)F)c1 (stereo not drawn) [CASODEX™, bicalutamide]","Free testosterone concentration, gmean","healthy male volunteers; Day 1, sample drawn before dosing (baseline)",0.048 nmol/L
same,"Free testosterone, ratio to Day 1","healthy male volunteers; Day 29, CASODEX alone 150 mg daily",1.58
same,"Free testosterone concentration, gmean","healthy male volunteers; Day 29, CASODEX alone 150 mg daily for 4 weeks",0.076 nmol/L
same,Increase in mean free testosterone concentration by the end of the treatment period,healthy male volunteers; end of treatment period (4 weeks CASODEX alone; 6 weeks combination),58%
"CC1(C)NC(=O)N(c2ccc([N+](=O)[O-])c(C(F)(F)F)c2)C1=O [nilutamide, 5,5-dimethyl-3-[4-nitro-3-(trifluoromethyl)phenyl]-2,4-imidazolidinedione]",Change of basal level of circulating testosterone,humans,causes an increase
"CC/C(=C(\c1ccccc1)c1ccc(OCCN(C)C)cc1)c1ccccc1 [tamoxifen, (Z)-2-[p-(1,2-diphenylbut-1-enyl)phenoxy]ethyldimethylamine]","Effect on mean serum testosterone, oestradiol, LH levels, LH pulse frequency and LH pulse amplitude","men; 13 normal men, 6 week administration (Spijkstra et al)",An increase
same,"Effect on basal serum levels of LH, oestradiol and testosterone",men; administration to men (Lewis-Jones et al),elevates
same,Effect on testosterone and LH,men; intake in adult men (Comhaire et al),increase testosterone and LH
same,"Effect on basal LH, FSH and testosterone levels","men; three months' treatment, normogonadotrophic oligozoospermic men (van Bergeijk et al)",stimulated

# Reference: patent US20030158160A1, “Pharmaceutical combination of an anti-androgen and tamoxifen for providing an anti-androgenic effect and aromatase inhibition” (priority 2000, published 2003)
